The source of these data is patent US7803795B2, “Phthalazine derivatives as parp inhibitors” (Janssen Pharmaceutica N.V., priority 2004, dated 2010).

Data set [1] deals with heart (ischemia and reperfusion). The note with it: rabbits, cited from earlier work.
The test system of the next data set is distal colon (colitis). The note with it: rats, colitis by intraluminal trinitrobenzene sulfonic acid in 50% ethanol; cited from earlier work.
The target of the next data set is T1, PARP-1 enzyme (Homo sapiens, UniProt P09874).
T1 construct: made in house
T1 sequence (P09874 whole entry): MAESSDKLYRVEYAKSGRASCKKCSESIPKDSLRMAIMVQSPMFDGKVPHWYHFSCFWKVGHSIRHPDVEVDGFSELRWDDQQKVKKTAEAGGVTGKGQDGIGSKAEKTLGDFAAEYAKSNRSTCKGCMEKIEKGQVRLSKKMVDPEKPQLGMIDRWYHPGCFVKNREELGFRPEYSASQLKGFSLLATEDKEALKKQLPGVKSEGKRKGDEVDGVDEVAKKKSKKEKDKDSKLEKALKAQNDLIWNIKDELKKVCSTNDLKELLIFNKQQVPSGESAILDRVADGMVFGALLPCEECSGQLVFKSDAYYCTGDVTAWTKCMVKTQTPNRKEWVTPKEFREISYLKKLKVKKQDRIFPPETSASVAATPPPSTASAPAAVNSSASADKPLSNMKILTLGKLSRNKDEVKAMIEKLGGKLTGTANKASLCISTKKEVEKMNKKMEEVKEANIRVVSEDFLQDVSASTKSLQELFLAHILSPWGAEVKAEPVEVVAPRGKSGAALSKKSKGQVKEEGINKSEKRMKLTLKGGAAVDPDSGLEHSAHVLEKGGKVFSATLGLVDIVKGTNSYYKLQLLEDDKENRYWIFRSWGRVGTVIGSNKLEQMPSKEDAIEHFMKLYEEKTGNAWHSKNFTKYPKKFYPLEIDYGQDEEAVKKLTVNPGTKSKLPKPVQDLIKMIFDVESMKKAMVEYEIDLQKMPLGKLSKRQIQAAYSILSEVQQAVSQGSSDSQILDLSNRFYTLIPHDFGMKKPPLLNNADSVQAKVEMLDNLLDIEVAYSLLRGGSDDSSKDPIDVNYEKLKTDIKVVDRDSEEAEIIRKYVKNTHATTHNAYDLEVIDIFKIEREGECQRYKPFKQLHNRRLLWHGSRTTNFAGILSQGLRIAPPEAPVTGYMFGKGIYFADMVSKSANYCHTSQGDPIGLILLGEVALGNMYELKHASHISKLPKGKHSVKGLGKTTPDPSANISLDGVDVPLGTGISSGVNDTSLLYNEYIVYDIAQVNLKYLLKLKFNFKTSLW
The experiment in a line: in vitro filtration assay for PARP-1 inhibitory activity. Format: biochemical. The settings on record: [32P]-NAD, histones, nicked DNA; dose-response 10^-5 M to 10^-8 M; read-out: in vitro filter assay PARP-1 pIC50 (converted). On the procedure: In Vitro Filtration Assay for PARP-1 Inhibitory Activity
Compounds of the present invention were tested in an in vitro filtration assay assessing PARP-1 activity (triggered in the presence of nicked DNA) by means of its histone poly (ADP-ribosylation activity using [^32P]-NAD as ADP-ribosyl donor. The radioactive ribosylated histones were precipitated by trichloroacetic acid (TCA) in 96-well filterplates and the incorporated [^32P] measured using a scintillation counter
A mixture of histones (stock solution: 5 mg/ml in H2O), NAD^+ (stock solution: 100 mM in H2O), and [^32P]-NAD^+ in incubation buffer (50 mM Tris/HCl, pH 8; 0.2 mM DTT; 4 mM MgCl2) was made. A mixture of the PARP-1 enzyme (5-10 μg/ml) and nicked DNA was also made. The nicked DNA was prepared as described in the in vitro SPA for PARP-1 inhibitory activity. Seventy-five μl of the PARP-1 enzyme/DNA mixture together with 1 μl of compound in DMSO and 25 μl of histones-NAD^+/[^32P]-NAD^+ mixture was added per well of a 96-well filterplate (0.45 μm, supplier Millipore). The final concentrations in the incubation mixture were 2 μg/ml for the histones, 0.1 mM for the NAD^+, […] (0.5 μC) for the [^32P]-NAD^+ and 2 μg/ml for the nicked DNA. Plates were incubated for 15 min. at room temperature and the reaction was terminated by the addition of 10 μl ice cold 100% TCA followed by the addition of 10 μl ice-cold BSA solution (1% in H2O). The protein fraction was allowed to precipitate for 10 min. at 4° C. and plates were vacuum filtered. The plates were subsequently washed with, for each well, 1 ml of 10% ice cold TCA, 1 ml of 5% ice cold TCA and 1 ml of 5% TCA at room temperature. Finally 100 μl of scintillation solution (Microscint 40, Packard) was added to each well and the plates were transferred to a TopCountNXT™ (supplier: Packard) for scintillation counting and values were expressed as counts per minute (cpm). For each experiment, controls (containing PARP-1 enzyme and DMSO without compound), a blank incubation (containing DMSO but no PARP-1 enzyme or compound) and samples (containing PARP-1 enzyme and compound dissolved in DMSO) were run in parallel. All compounds tested were dissolved and eventually further diluted in DMSO. In first instance, compounds were tested at a concentration of 10^−5M. […] In each test, the blank value was subtracted from both the control and the sample values. The control sample represented maximal PARP-1 enzyme activity. For each sample, the amount of cpm was expressed as a percentage of the mean cpm value of the controls. When appropriate, IC50-values (concentration of the drug, needed to reduce the PARP-1 enzyme activity to 50% of the control) were computed using linear interpolation between the experimental points just above and below the 50% level. Herein the effects of test compounds are expressed as pIC50 (the negative log value of the IC50-value). As a reference compound, 4-amino-1,8-naphthalimide was included to validate the filtration assay.

The next data set addresses T2, TANK-2 enzyme (Homo sapiens, UniProt Q9H2K2).
T2 construct: His tag (inferred from capture on a Ni-coated plate); made in house
T2 sequence (Q9H2K2 1-1166): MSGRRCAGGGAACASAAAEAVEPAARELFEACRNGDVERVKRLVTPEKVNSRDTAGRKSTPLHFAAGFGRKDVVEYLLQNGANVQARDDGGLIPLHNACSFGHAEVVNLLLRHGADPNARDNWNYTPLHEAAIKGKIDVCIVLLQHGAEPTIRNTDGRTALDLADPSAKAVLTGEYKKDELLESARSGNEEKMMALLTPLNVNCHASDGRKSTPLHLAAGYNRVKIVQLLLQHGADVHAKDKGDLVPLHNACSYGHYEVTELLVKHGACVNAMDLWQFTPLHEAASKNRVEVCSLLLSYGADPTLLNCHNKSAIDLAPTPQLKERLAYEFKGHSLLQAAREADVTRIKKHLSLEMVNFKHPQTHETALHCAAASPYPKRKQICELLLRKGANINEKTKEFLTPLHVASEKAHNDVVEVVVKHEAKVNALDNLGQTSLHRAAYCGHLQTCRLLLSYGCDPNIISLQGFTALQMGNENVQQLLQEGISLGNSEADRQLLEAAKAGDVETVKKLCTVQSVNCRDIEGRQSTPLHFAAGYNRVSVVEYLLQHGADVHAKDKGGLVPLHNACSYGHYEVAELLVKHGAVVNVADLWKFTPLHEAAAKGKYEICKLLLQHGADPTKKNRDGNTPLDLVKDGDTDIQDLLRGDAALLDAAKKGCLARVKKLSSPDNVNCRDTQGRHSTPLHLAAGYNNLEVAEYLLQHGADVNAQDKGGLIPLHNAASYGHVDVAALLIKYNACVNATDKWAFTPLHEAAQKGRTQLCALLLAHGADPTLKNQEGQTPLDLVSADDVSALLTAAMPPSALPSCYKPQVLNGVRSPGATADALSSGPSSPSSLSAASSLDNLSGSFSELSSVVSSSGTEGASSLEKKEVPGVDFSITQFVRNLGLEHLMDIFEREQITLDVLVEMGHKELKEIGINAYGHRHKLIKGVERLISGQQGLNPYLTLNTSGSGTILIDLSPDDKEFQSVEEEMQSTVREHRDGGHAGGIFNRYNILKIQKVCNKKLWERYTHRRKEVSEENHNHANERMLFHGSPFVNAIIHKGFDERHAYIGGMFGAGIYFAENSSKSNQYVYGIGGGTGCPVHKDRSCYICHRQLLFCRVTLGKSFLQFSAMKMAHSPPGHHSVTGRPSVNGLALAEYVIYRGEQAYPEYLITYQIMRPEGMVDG
The experiment in a line: in vitro Scintillation Proximity Assay (SPA) for TANK-2 inhibitory activity. Format: biochemical. Here is the method:
In Vitro Scintillation Proximity Assay (SPA) for Tank-2 Inhibitory Activity
Compounds of the present invention were tested in an in vitro assay based on SPA technology with Ni Flash plates (96 or 384 well).
In principle, the assay relies upon SPA technology for the detection of auto-poly(ADP-ribosylation of TANK-2 protein using [^3H]-nicotinamide adenine dinucleotide ([^3H]-NAD^+) as ADP-ribosyl donor.
A stock solution of [^3H]-NAD^+/NAD was made by adding 64.6 μl of [^3H]-NAD^+ (0.1 mCi/ml, supplier: Perkin Elmer) and 46.7 μl NAD-stock (10.7 mM, stored at −20° C., supplier Roche) to 1888.7 μl assay buffer (60 mM Tris/HCl, pH 7.4; 0.9 mM DTT; 6 mM MgCl2). The TANK-2 enzyme was produced as described in EP1238063.60 μl of assay buffer, together with 1 μl of compound in DMSO, 20 μl of [^3H]-NAD^+/NAD and 20 μl of TANK-2 enzyme (final concentration 6 μg/ml) was added per well into a 96-well Ni-coated flash plate (Perkin Elmer). After incubation of the mixture for 120 min. at room temperature, the reaction was terminated by adding 60 μl of stopsolution (42.6 mg NAD in 6 ml H2O). The plates were covered with a plate sealer and placed in a TopCountNXT™ (Packard) for scintillation counting. Values were expressed as counts per minute (cpm). For each experiment, controls (containing TANK-2 enzyme and DMSO without compound), a blank incubation (containing DMSO but no TANK-2 enzyme or compound) and samples (containing TANK-2 enzyme and compound dissolved in DMSO) were run in parallel. All compounds tested were dissolved and eventually further diluted in DMSO. […] In each test, the blank value was subtracted from both the control and the sample values. The control sample represented maximal TANK-2 enzyme activity. For each sample, the amount of cpm was expressed as a percentage of the mean cpm value of the controls. When appropriate, IC50-values (concentration of the drug, needed to reduce the TANK-2 enzyme activity to 50% of the control) were computed using linear interpolation between the experimental points just above and below the 50% level. Herein the effects of test compounds are expressed as pIC50 (the negative log value of the IC50-value). As reference compounds, 3-aminobenzamide and 4-amino-1,8-naphthalimide were included to validate the SPA assay. Herein the assay was described using 96-well plates. In the assay using 384-well plates the same final concentrations were used and volumes were adapted.

pIC50: −log10 of the molar value.

As for `O=c1[nH]nc(C2CCNCC2)c2ccccc12` (hydrate or solvate) [Compound 4], the melting point came to 264.9 °C.

As for `Oc1cccc2c(O)nccc12` [1,5-dihydroxyisoquinoline], in data set [1] (single injection 1 mg/kg), the reduced infarct size is recorded as 38-48%.

Consider `NC(=O)c1cccc(N)c1` [3-amino-benzamide], for which, in data set [1] (single injection 10 mg/kg, one minute before occlusion or one minute before reperfusion), the “reductions in infarct size in the heart” value is 32-42%. In addition, the “effect on inflammatory response and distal colon” value in the data set with distal colon (colitis) was “reduced the inflammatory response”.

Take `O=c1[nH]nc(C2CCN(CC(O)COc3ccc(F)cc3)CC2)c2ccccc12` (centres unmarked) [Compound 2]: the melting point turned out to be 226.9 °C. Also, on PARP-1 enzyme, the IC50 was 17.2 nM.

`CC(=O)N1CCC(c2n[nH]c(=O)c3ccccc23)CC1` [Compound 5] had a melting point of 222 °C. The IC50 at PARP-1 enzyme was 270 nM. At TANK-2 enzyme, this compound had a pIC50 below 5.00.

`NC(=O)N1CCC(c2n[nH]c(=O)c3ccccc23)CC1` [Compound 6] came in with a melting point above 300 °C. Further, on PARP-1 enzyme, the IC50 was 195 nM. The compound also gave a pIC50 on TANK-2 enzyme below 5.00.

`N#CCN1CCC(c2n[nH]c(=O)c3ccccc23)CC1` [Compound 7]: the melting point was determined as 259 °C. Further, on PARP-1 enzyme, the IC50 is 88.9 nM. This compound gave a pIC50 against TANK-2 enzyme of 5.02.

In the case of `NCCN1CCC(c2n[nH]c(=O)c3ccccc23)CC1` [Compound 8], the melting point stood at 202 °C. On PARP-1 enzyme, the IC50 is 29 nM. At TANK-2 enzyme, this compound had a pIC50 below 5.00.

Regarding `NCC1CCN(c2n[nH]c(=O)c3ccccc23)CC1` [Compound 9], the melting point was determined as 182 °C. For the same compound, at PARP-1 enzyme, the IC50 is 15.5 nM. For the same compound, the pIC50 against TANK-2 enzyme was below 5.00.

Compound `O=c1[nH]nc(N[C@H]2CCN[C@@H](Cc3ccccc3)C2)c2ccccc12` [Compound 10] had a melting point of 238 °C. The IC50 at PARP-1 enzyme is 24.3 nM. For the same compound, the pIC50 on TANK-2 enzyme is below 5.00.

For `CCOC(=O)N1CC[C@H](Nc2n[nH]c(=O)c3ccccc23)C[C@@H]1Cc1ccccc1` [Compound 16], the melting point was determined as 140 °C. For the same compound, at PARP-1 enzyme, the IC50 was 378 nM. For the same compound, at TANK-2 enzyme, the pIC50 is below 5.00.

For `N#CC1CCN(c2n[nH]c(=O)c3ccccc23)CC1` [Compound 18], the melting point stood at 253 °C.

`CCOC(=O)N1CC[C@H](Nc2nnc(Cl)c3ccccc23)C[C@@H]1Cc1ccccc1` [Compound 19] had a melting point of 161 °C. On TANK-2 enzyme, this compound showed a pIC50 below 5.00.

`CCOC(=O)N1CCC(Nc2nnc(Cl)c3ccc([N+](=O)[O-])cc23)CC1` [Compound 20] displayed a melting point of 199 °C. Also, the negative logarithm of the IC50 (pIC50) at TANK-2 enzyme was below 5.00.

What is called melting point is the temperature of the solid-liquid transition. As usually defined, the pIC50 is the IC50 on a negative log10 scale, so that one unit is a factor of ten.
